Experimental data taken from patent publication US12391698B2, “Substituted piperidines and piperazines and methods for the treatment of CNS disorders” (SUVEN LIFE SCIENCES LIMITED, priority 2022, dated 2025).
Where a name gives a salt, the structure may show the parent alone.

Assays:
[1] = target: T1, cloned human 5-HT1A receptor (Homo sapiens, UniProt P08908); assay: Determination of Ki at 5-HT1A receptor (radioligand binding, [3H]-8-Hydroxy DPAT); details: HEK293-EBNA recombinant cells; [3H]-8-Hydroxy DPAT 0.8 nM; read-out: Ki h5-HT1A
T1 construct: expressed in transfected cells; host or cells: HEK293-EBNA
T1 sequence (P08908 1-422): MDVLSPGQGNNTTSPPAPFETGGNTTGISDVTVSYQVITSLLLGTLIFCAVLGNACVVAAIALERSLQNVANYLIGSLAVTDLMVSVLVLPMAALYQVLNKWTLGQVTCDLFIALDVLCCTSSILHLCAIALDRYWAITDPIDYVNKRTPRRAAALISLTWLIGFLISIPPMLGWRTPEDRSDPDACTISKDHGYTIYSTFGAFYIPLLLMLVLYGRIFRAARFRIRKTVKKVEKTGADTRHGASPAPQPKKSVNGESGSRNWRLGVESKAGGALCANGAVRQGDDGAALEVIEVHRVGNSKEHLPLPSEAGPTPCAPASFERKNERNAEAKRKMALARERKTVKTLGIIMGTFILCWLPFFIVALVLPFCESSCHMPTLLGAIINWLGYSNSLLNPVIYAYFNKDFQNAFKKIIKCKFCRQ
Protocol: (§1) Compounds were tested according to the following procedure.
(§2) • Receptor source: Recombinant mammalian cells (HEK293-EBNA) • Radioligand: [^3H]-8-Hydroxy DPAT (200 Ci/mmol) • Final ligand concentration: 0.8 nM • Non-specific determinant: 0.1 mM U92016A • Reference compound: U92016A • Positive control: U92016A Incubation Conditions:
(§3) Reactions were carried out in buffer with pH 7.4 containing 50 mM Tris-HCl, 0.5 mM EDTA, 10 mM MgSO4, 0.1% Ascorbic acid for 2 h at r.t. The reaction was terminated by rapid vacuum filtration onto the glass fiber filters. Radioactivity trapped onto the filters was determined and compared to the control values in order to ascertain any interactions of the test compound(s) with cloned human 5-HT1A receptor binding site.

[2] = target: T2, cloned human 5-HT2A receptor (Homo sapiens, UniProt P28223); assay: Determination of Ki at 5-HT2A receptor (radioligand binding, [3H]-Ketanserine); details: CHO-K1 recombinant cells; [3H]-Ketanserine 1.25 nM; read-out: Ki h5-HT2A
T2 construct: expressed in transfected cells; host or cells: CHO-K1
Protocol: as §1
as §2, with “(CHO-K1)” for “(HEK293-EBNA)”, “[^3H]-Ketanserine (41.9” for “[^3H]-8-Hydroxy DPAT (200”, “1.25” for “0.8”, “1-Napthyl piperazine (1-NP)” for “U92016A”
as §3, with “4” for “0.5”, “CaCl2),” for “EDTA, 10 mM MgSO4,”, “1” for “2”, “5-HT2A” for “5-HT1A”

[3] = target: cloned human SERT receptor (Homo sapiens, UniProt P31645); assay: Determination of Ki at SERT receptor (SPA binding, [3H]-Citalopram); details: HEK293 recombinant cells; [3H]-Citalopram 2 nM; cells printed in μM; read-out: Ki hSERT
Protocol: as §1
• Receptor source: Recombinant mammalian cells (HEK293) • Radioligand: [^3H]-Citalopram (80.8 Ci/mmol) • Final ligand concentration: 2 nM • Non-specific determinant: 0.1 mM Venlafaxine • Reference compound: Venlafaxine • Positive control: Venlafaxine Incubation Conditions:
Reactions were carried out in buffer with pH 7.4 containing 50 mM Tris-HCl, 150 mM NaCl, 5 mM KCl and scintillation proximity assay (SPA) beads (0.1 mg/well) for 3 h at r.t. Radioactivity proximal to SPA beads was determined by scintillation proximity assay and compared to the control values in order to ascertain any interactions of the test compound(s) with cloned human SERT receptor binding site.
Reference: Journal of Pharmacology and Experimental Therapeutics, 1987, 242 (1), 364-371.

[4] = target: T3, hD2S (cloned human dopamine D2S receptor) (Homo sapiens, UniProt P14416); assay: Determination of Ki at D2S receptor (radioligand binding, [3H]-Raclopride); details: CHO-K1 recombinant cells; [3H]-Raclopride 4 nM; read-out: Ki hD2S
T3 construct: expressed in transfected cells; host or cells: CHO-K1
Protocol: as §1
• Receptor source: Recombinant mammalian cells (CHO-K1) • Radioligand: [^3H]-Raclopride (80.8 Ci/mmol) • Final ligand concentration: 4 nM • Non-specific determinant: 0.1 mM Haloperidol • Reference compound: Haloperidol • Positive control: Haloperidol Incubation Conditions:
as §3, with “120” for “0.5”, “NaCl, 5” for “EDTA, 10”, “KCl, 5 mM MgCl2, 1 mM EDTA” for “MgSO4, 0.1% Ascorbic acid”, “dopamine […]” for “5-HT1A”

[5] = Rodent pharmacokinetic study; assay type: in vivo, Male Wistar rats; details: rat, plasma, mean ± S.D, n = 3
Protocol: Male Wistar rats (260±50 g) were used as experimental animals. Animals were housed individually in polypropylene cage. Two days prior to study, male Wistar rats were anesthetized with isoflurane for surgical placement of jugular vein catheter. Rats were randomly divided for oral (3 mg/kg) and intravenous (1 mg/kg) dosing (n=3/group) and fasted overnight before oral dosing (p.o.). However, food and water were provided ad libitum to the rats allocated for intravenous dosing.
At pre-determined time points, blood samples were collected through jugular vein and replenished with an equivalent volume of normal saline. Collected blood was transferred into a labeled eppendorf tube containing 10 μL of heparin as an anticoagulant. Typically blood samples were collected at 0.08, 0.25, 0.5, 1, 2, 4, 6, 8, and 24 h post dose. Blood samples were centrifuged at 4000 rpm for 10 min. Plasma was separated and stored frozen at −80° C. until analysis. The concentrations of the test compounds were quantified in plasma by qualified LC-MS/MS method using suitable extraction technique. The test compounds were quantified in the calibration range around 1-1000 ng/mL in plasma. Study samples were analyzed using calibration samples in the batch and quality control samples spread across the batch.
Pharmacokinetic parameters Cmax, AUCt, t1/2. Clearance and Bioavailability (F) were calculated using standard non-compartmental model by using Phoenix WinNonlin 6.0.4 version software package.

[6] = Rodent brain penetration study; assay type: in vivo; details: rat, brain/plasma, po, fed male Wistar rats, 3 mg/kg p.o., mean ± S.D, n = 3, read-out: Rat Brain Penetration (Cbrain/Cplasma) at 3 mg/kg, p.o. @ 1 h
Protocol: Male Wistar rats (260±40 g) were used as experimental animals. Three animals were housed in each cage. Animals were given water and food ad libitum throughout the experiment and maintained on a 12 h light/dark cycle.
Brain penetration was determined in discrete manner in rats. One day prior to dosing, male Wistar rats were acclimatized and randomly grouped according to their body weight. At each time point (0.50, 1 and 2 h), n=3 animals were used.
The test compounds were suitably preformulated and administered orally at (free base equivalent) 3 mg/kg. Blood samples were removed via cardiac puncture under isoflurane anesthesia. The animals were sacrificed to collect brain tissue. Plasma was separated and brain samples were homogenized. Plasma and brain homogenates were stored frozen at −20° C. until analysis. The concentrations of the test compounds in plasma and brain were determined using LC-MS/MS method.
The test compounds were quantified in plasma and brain homogenate by qualified LC-MS/MS method using suitable extraction technique in the calibration range of 1-500 ng/mL. Study samples were analyzed using calibration samples in the batch and quality control samples spread across the batch. Extent of brain-plasma ratio (Cbrain/Cplasma) was calculated.

[7] = test system: Male Sprague Dawley rats; assay: Amphetamine-induced hyperlocomotion; assay type: in vivo, rat; details: 3 mg/kg, p.o., dosed 30 min prior to trial
Protocol: Male Sprague Dawley rats of 230-280 g body weight were used. Rats were weighed and randomized according to their body weights. Following day, the rats were brought to the laboratory 1 h prior to test. In the morning session, rats were habituated to open field arena for 15 min. Test compound/vehicle and amphetamine/vehicle were administered 30 min prior to the trial. After the post-dose interval, rats were placed in the open field and locomotion was recorded for a period of 15 min. Amphetamine-induced hyperlocomotion models positive symptoms of schizophrenia.

[8] = test system: Rats; assay: Tardive dyskinesia test (vacuous chewing movements and tongue protrusions); assay type: in vivo, rat; details: 38 mg/kg, i.m. single dose, scored weekly for 4 weeks
Protocol: Rats weighing 200-230 g were acclimatized to the plexiglass observation cages (30×20×30 cm) equipped with mirrors for 5 min. After acclimatization, basal vacuous chewing movements (VCMs) and tongue protrusions (TPs) of the rats were quantified manually for 5 min. Rats were randomized based on the basal readings. Rats received a single dose of sesame oil (vehicle treatment) or haloperidol decanoate (38 mg/kg, i.m. positive control). Example-2, 10 mg/kg, p.o. ([…]) was administered for 4 weeks. VCMs and TPs were scored on weekly basis for 4 weeks. Tardive dyskinesia is a side effect of antipsychotic medications.

[9] = intravenous (bolus) 1 mg/kg, male Wistar rats
[10] = oral (gavage) 3 mg/kg, fasted male Wistar rats

T3 sequence (P14416 1-414 isoform P14416-2): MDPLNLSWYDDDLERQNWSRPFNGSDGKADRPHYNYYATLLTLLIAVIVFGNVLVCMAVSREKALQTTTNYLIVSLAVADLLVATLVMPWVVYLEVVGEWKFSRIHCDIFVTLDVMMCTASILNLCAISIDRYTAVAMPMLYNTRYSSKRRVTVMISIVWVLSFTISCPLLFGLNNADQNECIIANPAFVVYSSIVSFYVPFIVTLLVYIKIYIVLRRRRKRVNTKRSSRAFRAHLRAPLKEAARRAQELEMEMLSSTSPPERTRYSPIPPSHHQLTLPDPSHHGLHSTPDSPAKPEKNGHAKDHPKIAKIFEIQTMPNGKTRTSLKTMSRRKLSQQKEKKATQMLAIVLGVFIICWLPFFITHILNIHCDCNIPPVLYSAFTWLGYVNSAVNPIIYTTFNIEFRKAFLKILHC
Chain of cloned human SERT receptor (P31645 whole entry): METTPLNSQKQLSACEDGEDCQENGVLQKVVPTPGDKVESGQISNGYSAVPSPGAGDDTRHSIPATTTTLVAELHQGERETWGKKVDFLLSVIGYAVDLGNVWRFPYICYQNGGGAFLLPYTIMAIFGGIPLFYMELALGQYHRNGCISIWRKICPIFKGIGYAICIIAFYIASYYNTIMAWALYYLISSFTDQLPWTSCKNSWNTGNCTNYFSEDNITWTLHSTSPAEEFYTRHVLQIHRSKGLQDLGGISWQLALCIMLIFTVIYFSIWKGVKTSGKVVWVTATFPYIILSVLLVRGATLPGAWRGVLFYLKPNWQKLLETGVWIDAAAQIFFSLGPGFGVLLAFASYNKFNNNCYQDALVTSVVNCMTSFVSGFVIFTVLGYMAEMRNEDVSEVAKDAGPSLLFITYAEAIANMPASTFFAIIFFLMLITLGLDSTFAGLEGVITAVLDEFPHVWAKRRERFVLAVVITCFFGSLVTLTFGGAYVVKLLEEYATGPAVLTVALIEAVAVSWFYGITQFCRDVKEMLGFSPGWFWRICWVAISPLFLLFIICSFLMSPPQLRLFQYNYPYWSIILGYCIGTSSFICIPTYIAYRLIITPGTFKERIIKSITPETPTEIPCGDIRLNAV
T2 sequence (P28223 whole entry): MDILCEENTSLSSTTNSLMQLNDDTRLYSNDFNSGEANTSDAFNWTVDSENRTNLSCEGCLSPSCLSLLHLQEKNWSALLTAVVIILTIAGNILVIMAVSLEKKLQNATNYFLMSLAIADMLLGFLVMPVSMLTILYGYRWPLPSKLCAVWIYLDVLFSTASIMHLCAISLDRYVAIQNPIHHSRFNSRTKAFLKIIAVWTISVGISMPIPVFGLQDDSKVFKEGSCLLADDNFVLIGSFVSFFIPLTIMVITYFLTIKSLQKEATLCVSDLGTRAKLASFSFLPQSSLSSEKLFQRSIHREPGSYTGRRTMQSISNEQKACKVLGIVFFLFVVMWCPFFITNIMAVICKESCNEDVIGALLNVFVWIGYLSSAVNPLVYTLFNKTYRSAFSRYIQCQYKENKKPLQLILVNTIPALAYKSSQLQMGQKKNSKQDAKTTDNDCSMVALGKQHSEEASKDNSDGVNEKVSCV

SMILES | Ki [1] | Ki [2] | Ki [3] | Ki [4] | AUC(0-t) [5, 9] | clearance [5, 9] | half-life [5, 9] | bioavailability ([5]; oral 3 mg/kg vs intravenous 1 mg/kg, male Wistar rats, read-out: F (Bioavailability)) | AUC(0-t) [5, 10] | Cmax [5, 10] | half-life [5, 10] | Kp at 1 h [6] | Inference, amphetamine antagonism (hyperlocomotion) [7] | Inference, tardive dyskinesia test (VCMs and TPs vs vehicle group) [8]
O=C1C[C@H]2CCCN2C(=O)N1C[C@H]1CCCC[C@H]1CN1CCN(c2nsc3ccccc23)CC1 [Example 27, 2-[2-(4-Benzo[d]isothiazol-3-yl-piperazin-1-ylmethyl)-cyclohexylmethyl]-tetrahydro-pyrrolo[1,2-c]pyrimidine-1,3-dione oxalate] | 4.7 nM | 2 nM | > 10 µM | 0.2 nM | 360 ± 10 ng·h/mL | 45 ± 1.3 mL/min/kg | 2.4 ± 0.4 h | 16 ± 8% | 173 ± 92 ng·h/mL | 186 ± 109 ng/mL | 1.8 ± 0.1 h | 1.21 ± 0.13 | Active | 
CCCCCCCCCC(=O)OC1(c2ccc(Cl)cc2)CCN(CCCC(=O)c2ccc(F)cc2)CC1 [Haloperidol decanoate, reference compound] |  |  |  |  |  |  |  |  |  |  |  |  |  | Increased number of VCMs and TPs
